Results reported in patent US8895561B2, “Compounds and methods for treating candidiasis and aspergillus infections” (Cellceutix Corporation, priority 2012, dated 2014).

What was measured:
C. albicans GDH2346 = assay: Membrane permeabilization, PI staining and flow cytometry; assay type: cell-based; conditions: 32 μg/mL, 5-minute treatment
Protocol: (A) C. albicans GDH2346 was treated with Compound 100 at the concentrations indicated ([…]) for 30 minutes, followed by staining with PI and quantification by flow cytometry. Ethanol treatment was used to establish 100% uptake. (B) Cells were treated with Compound 100 at 32 μg/mL for the times indicated. To determine whether the compounds act at the membrane, like many host defense proteins, or intracellularly like histatins, the ability of Compound 100 to cause membrane permeability was assessed. Dose-dependent membrane permeabilization of Candida, as shown by cellular accumulation of PI, was evident within 30 minutes at 8 to 32 μg/mL Compound 100 concentrations (see FIG. 3A). Influx was rapid, where >75% of cells were permeabilized after a 5-minute treatment with Compound 100 at 32 μg/mL (see FIG. 3B).

[1] = test system: C. albicans (GDH2346) hyphae; assay: Activity against hyphae, Live-Dead stain fluorescence microscopy; assay type: cell-based; conditions: 8 μg/mL, 15 to 60 minutes
Protocol: C. albicans (GDH2346) was grown in 10% FCS for 3 days to achieve hyphae. Hyphae were treated with Compound 100 (8 μg/mL) for 0 minutes (see, FIG. 2A), 15 minutes (see, FIG. 2B), 30 minutes (see, FIG. 2C), or 60 minutes (see, FIG. 2D). Cultures were stained with FungaLight Live-Dead stain (InVitrogen) and observed under fluorescence microscopy (100× magnification).

[2] = test system: C. albicans (clinical isolate GDH2346); assay: Mouse model of oral candidiasis; assay type: in vivo, mice
Protocol: To examine the activity of Compound 100 in vivo, an oral model of Candida infection was established in C57B1/6 mice. Animals were first treated for 5 days with oral tetracycline to reduce normal oral flora. An infection was initiated in the mice by inoculating a 50 μL suspension of C. albicans onto lightly scored tongues. This led to colonization of the tongues by days 2 to 4 after inoculation as measured by histological analysis and by recovery of viable colonies upon homogenization. Topical treatment of the infections on day 3 with a single 50 μL dose of a 1 mg/mL compound solution in a neutral hydrogel was sufficient to reduce the total colony counts by greater than 10-fold, equivalent to a similar treatment with an equivalent concentration of Nystatin suspension. […] 8-week old male mBD-1(−/−) mice on a C57B1/6 background were pre-treated for 5 days with 2.5 mg/mL oral tetracycline to reduce normal oral flora (n=5 per group; n=4 for nystatin group). Day 0: infection initiated by oral inoculation of a 50 μL suspension of C. albicans (clinical isolate GDH2346 at 5×10^7 cfu/mL) onto a cotton ball after lightly scoring the tongues. Day 3: Single topical administration of test agent (10 mg/mL) applied in 0.05 mL hydrogel. Tissue was harvested 24 hours post-treatment, homogenized, and quantitated by serial dilution and plating.

C. albicans [3] = assay: Mouse Candida sepsis model, kidney burden; assay type: in vivo; conditions: neutropenic mice, IV 1 hour after infection, kidneys at 24 hours
Protocol: Mice were made neutropenic with i.p. injections of cyclophosphamide (150 mg/kg in 10 mL/kg) at 4 and 1 day before inoculation. Each animal was then inoculated by injecting 0.1 mL of inoculum of C. albicans in a tail vein. The standard was administered orally and the test compounds by IV 1 hour after infection. The kidneys were collected from four mice in Group 1 at 1 hour after infection and from the remaining mice in the study at 24 hours after infection. Kidneys were combined in a sterile tube. An aliquot of sterile PBS were added to each tube and the contents homogenized with a tissue homogenizer. Serial dilutions of the tissue homogenates were conducted, 0.1 mL aliquots were spread on SDA plates and the plates incubated at 35° C. overnight. The CFU/kidneys were determined from colony counts. One-way ANOVA with Bonferroni Multiple Comparisons Test was performed using GraphPad InStat version 3.00 for Windows 95, GraphPad Software, San Diego Calif. USA.

C. albicans [4] = assay: Disseminated candidiasis model, survival study; assay type: in vivo; conditions: neutropenic mice
Protocol: Mice were made neutropenic with i.p. injections of cyclophosphamide (150 mg/kg in 10 mL/kg) at 4 and 1 day before inoculation. Each animal was then inoculated by injecting 0.1 mL of inoculum of C. albicans in a tail vein. At 2 hours post-infection, the standard was administered orally and the test compound by IV. Compounds were dosed once daily for 4 days.
The kidneys were collected from four mice in Group 1 at 2 hours after infection, from four mice in Groups 2-5 at five days after infection, and from all surviving mice in the infected treatment groups. An aliquot of sterile PBS were added to each tube and the contents homogenized with a tissue homogenizer. Serial dilutions of the tissue homogenates were conducted, 0.1 mL aliquots were spread on SDA plates and the plates incubated at 35° C. overnight. The CFU/kidneys were determined from colony counts.
Survival data was analyzed using the log-rank (Mantel-Cox) test and one-way ANOVA with Tukey's Multiple Comparisons Test was performed on the yeast density and change in body weight data (GraphPad InStat version 5.04).

A. fumigatus (A1163) = assay: Anti-Aspergillus screen, CLSI M38-A, visual inhibition of growth; assay type: cell-based; conditions: screening concentration 10 μM, 24-48 hours
Protocol: (§1) The in vitro efficacy of a library of compounds was assessed for antifungal activity against A. niger (AN1), A. fumigatus ([…]) and A. flavus (NRRL3357) and compared to that of Itraconazole. For a subset of compounds selected based upon efficacy in the screening study a full MIC profile was conducted. Efficacy of test articles was determined in RPMI 1640 broth with MOPS buffered to pH7.2 in accordance with CLSI guidelines M38-A for Antifungal Susceptibility Testing of Filamentous Fungi. The method was modified by using flat well plates to allow microscopic identification of growth. The final screening concentration of each test article was 10 μM. Assay plates were incubated aerobically at 37° C. for 24-48 hours. Following incubation, plates were assessed visually (by eye and microscopically) for inhibition of growth. Inhibition was recorded at 50%, 80% and 100% inhibition compared to the positive control.

A. niger (AN1) = assay: as above; assay type: cell-based; conditions: screening concentration 10 μM, 24-48 hours
Protocol: as §1

A. flavus (NRRL3357) = assay: as above; assay type: cell-based; conditions: screening concentration 10 μM, 24-48 hours
Protocol: as §1

NCCSc1cc(SCCN)c(C(F)(F)F)cc1NC(=O)c1cc(C(=O)Nc2cc(C(F)(F)F)c(SCCN)cc2SCCN)ncn1 [Compound 100]
cells permeabilized (PI uptake) (C. albicans GDH2346): > 75%
death of hyphal cultures [1]: rapidly caused death of hyphal cultures at low concentrations
reduction of total colony counts ([2]; single 50 μL dose of 1 mg/mL solution in neutral hydrogel, day 3, C57B1/6 mice): greater than 10 fold
efficacy relative to Nystatin ([2]; single topical dose 10 mg/mL in 0.05 mL hydrogel on day 3, tongue harvested 24 hours post-treatment): 50 fold
effect on infected tongue burden ([2]; single topical dose 10 mg/mL in hydrogel): nearly sterilized the infected tongue

NCCCOc1cc(OCCCN)cc(-c2ccc3c(c2)c2cc(-c4cc(OCCCN)cc(OCCCN)c4)ccc2n3CCCN)c1 [Compound 135]
reductions in tissue burden from treatment onset (C. albicans [3]): ≥ 1.5 log10
survival over a 14-day period, p between Fluconazole and compound (C. albicans [4]; 10 mg/kg IV once daily for 4 days): < 0.01
survival over a 14-day period, p between Fluconazole and compound (C. albicans [4]; 15 mg/kg IV once daily for 4 days): < 0.01

N=C(N)N1CCN(c2ccc(-c3cc(-c4ccc(N5CCN(C(=N)N)CC5)cc4)ncn3)cc2)CC1 [Compound 136]
inhibition at 10 µM (A. fumigatus (A1163)): 100%
inhibition at 10 µM (A. niger (AN1)): 100%
inhibition at 10 µM (A. flavus (NRRL3357)): 100%
